pEC50, pKi: −log10 of the molar value. Like-named read-outs stand apart in the source and are kept apart here. Positions of bridges follow the written chain, without caps; N, C: chain ends. Non-standard residues stand in square brackets, D forms with d. Residues, ends and D or L forms follow the SMILES beside them. dPhe(4-CN) = N#Cc1ccc(C[C@@H](N)C(=O)O)cc1; dPhe(3-Cl) = N[C@H](Cc1cccc(Cl)c1)C(=O)O; Orn = NCCC[C@H](N)C(=O)O

In assay [1] the target is T1, hMC4-R (Homo sapiens (Human), UniProt P32245). Description: Competitive inhibition binding assay using [I125]-NDP-α-MSH, hMC4-R. The settings on record: membranes of HEK-293 cells expressing recombinant hMC4-R, read-out: MC4-R Ki. The procedure:
7.1 Competitive Inhibition Assay using [I^125]-NDP-α-MSH.
A competitive inhibition binding assay was performed for exemplified peptides according to the invention using membrane homogenates prepared from HEK-293 cells that express recombinant hMC4-R, hMC3-R, or hMC5-R, and from B-16 mouse melanoma cells (containing endogenous MC1-R). In some instances, HEK-293 cells that express recombinant hMC1-R were employed. Assays were performed in 96 well GF/B Millipore multiscreen filtration plates (MAFB NOB10) pre-coated with 0.5% bovine serum albumin (Fraction V). Membrane homogenates were incubated with 0.2 nM (for hMC4-R) 0.4 nM (for MC3-R and MC5-R) or 0.1 nM (for mouse B16 MC1-R or hMC1-R) [I^125]-NDP-α-MSH (Perkin Elmer) and increasing concentrations of test peptides of the present invention in buffer containing 25 mM HEPES buffer (pH 7.5) with 100 mM NaCl, 2 mM CaCl2, 2 mM MgCl2, 0.3 mM 1,10-phenanthroline, and 0.2% bovine serum albumin. After incubation for 60 minutes at 37° C., the assay mixture was filtered and the membranes washed three times with ice-cold buffer. Filters were dried and counted in a gamma counter for bound radioactivity. […] Maximal specific binding (100%) was defined as the difference in radioactivity (cpm) bound to cell membranes in the absence and presence of 1 μM NDP-α-MSH. […] Each assay was conducted in triplicate and the actual mean values are described, with results less than 0% reported as 0%. Ki values for test peptides of the present invention were determined using Graph-Pad Prism® curve-fitting software.

In assay [2] the target is T1, hMC4-R. Description: High and low density hMC4-R functional assay (cAMP, HEK293-T-REx-MC4-R cells). In kind it is cell-based. The conditions noted are these: for Emax: NDP-α-MSH = 100%, read-out: Intrinsic Activity (%). Here is the method:
The cells were then dispensed into 96-well plates (BD 353916) in 198 μL (about 5×10^4) cells/well and incubated for 10 minutes at 37° C. The compound to be tested was diluted with DMSO to a final concentration of 1 mM. […] 120 μL of the 1 mM compound stock was pipetted in the second column on the plate. […] All assay samples were run in duplicate (i.e. each sample was in two low dox and two high dox plates, respectively). The plates were gently shaken and incubated for 15 minutes at 37° C.

[3] abbreviates: 0.1 ng/mL Doxycycline (low density hMC4-R system).
The mark [4] stands for this setting: 10 ng/mL Doxycycline (high density hMC4-R system).

T1 sequence (P32245 whole entry): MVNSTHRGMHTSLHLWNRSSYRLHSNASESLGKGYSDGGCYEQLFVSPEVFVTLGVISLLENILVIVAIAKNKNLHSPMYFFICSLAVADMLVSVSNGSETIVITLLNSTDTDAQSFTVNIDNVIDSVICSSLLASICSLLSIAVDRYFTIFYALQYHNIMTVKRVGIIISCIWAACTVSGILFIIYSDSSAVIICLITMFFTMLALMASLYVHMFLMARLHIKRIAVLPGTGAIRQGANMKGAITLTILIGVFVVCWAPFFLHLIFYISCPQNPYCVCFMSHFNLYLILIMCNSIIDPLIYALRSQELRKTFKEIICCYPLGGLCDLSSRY

Consider `CC(=O)N[C@@H](CCCNC(=N)N)C(=O)N[C@H]1CCCNC(=O)CC[C@@H](C(N)=O)NC(=O)[C@H](Cc2c[nH]c3ccccc23)NC(=O)[C@H](CCCNC(=N)N)NC(=O)[C@@H](Cc2cccc(C)c2)NC(=O)[C@H](CC(N)=O)NC1=O` [Example 72, Ac-Arg-cyclo(Orn-Asn-D-Phe(3-Me)-Arg-Trp-Glu)-NH2], for which the pKi in assay [1] is 8.40. The pEC50 in assay [2] (setting [3]) was 8.52; in assay [2] (setting [4]), 9.46. In addition, the Emax in assay [2] (setting [3]) stood at 11%; in assay [2] (setting [4]), 84%.

In the case of `CC(=O)N[C@@H](CCCNC(=N)N)C(=O)N[C@H]1CCCNC(=O)CC[C@@H](C(N)=O)NC(=O)[C@H](Cc2c[nH]c3ccccc23)NC(=O)[C@H](CCCNC(=N)N)NC(=O)[C@@H](Cc2ccccc2C)NC(=O)[C@H](CCC(N)=O)NC1=O` [Example 111, Ac-Arg-cyclo(Orn-Gln-D-Phe(2-Me)-Arg-Trp-Glu)-NH2], the pKi in assay [1] is 8.22. The figures for the Emax in assay [2] (setting [3]) and in assay [2] (setting [4]) were 81% and 104%, respectively.

Take `CC(=O)N[C@@H](CCCNC(=N)N)C(=O)N[C@H]1CCC(=O)NCCC[C@@H](C(N)=O)NC(=O)[C@H](Cc2c[nH]c3ccccc23)NC(=O)[C@H](CCCNC(=N)N)NC(=O)[C@@H](Cc2ccc(C(F)(F)F)cc2)NC(=O)[C@H](CCN)NC1=O` [Example 20, Ac-Arg-cyclo(Glu-Dab-D-Phe(4-CF3)-Arg-Trp-Orn)-NH2]: the pKi in assay [1] is 10.22. Moreover, the Emax in assay [2] (setting [3]) was found to be 0.5%. In addition, in assay [2] (setting [4]), the pEC50 is 9.12 and the Emax was 53%.

Consider `CC(=O)N[C@@H](CCCNC(=N)N)C(=O)N[C@H]1CCCNC(=O)CC[C@@H](C(N)=O)NC(=O)[C@H](Cc2c[nH]c3ccccc23)NC(=O)[C@H](CCCNC(=N)N)NC(=O)[C@@H](Cc2cc(F)c(F)c(F)c2)NC(=O)[C@H](CCC(N)=O)NC1=O` [Example 98, Ac-Arg-cyclo(Orn-Gln-D-Phe(3,4,5-triF)-Arg-Trp-Glu)-NH2], for which, in assay [2] (setting [3]), the pEC50 was 9.35 and the Emax amounted to 47%. Besides, in assay [2] (setting [4]), the pEC50 is 9.85 and the Emax turned out to be 100%.

For `CC(=O)N[C@@H](CCCNC(=N)N)C(=O)N[C@H]1CCC(=O)NCCC[C@@H](C(=O)O)NC(=O)[C@H](Cc2c[nH]c3ccccc23)NC(=O)[C@H](CCCNC(=N)N)NC(=O)[C@@H](Cc2ccc(C#N)cc2)NC(=O)[C@H](CCC(=O)O)NC1=O` [Example 109, Ac-Arg-cyclo(Glu-Glu-D-Phe(4-CN)-Arg-Trp-Orn)-OH] (Ac-REE[dPhe(4-CN)]RW[Orn]-OH; lactam 2-7), the Emax is 2% in assay [2] (setting [3]) and 69% in assay [2] (setting [4]).

`CC(=O)N[C@@H](CCCNC(=N)N)C(=O)N[C@H]1CCC(=O)NCCC[C@@H](C(N)=O)NC(=O)[C@H](Cc2c[nH]c3ccccc23)NC(=O)[C@H](CCCNC(=N)N)NC(=O)[C@@H](Cc2ccc(F)cc2)NC(=O)[C@@H]2CCCN2C1=O` [Example 102, Ac-Arg-cyclo(Glu-Pro-D-Phe(4-F)-Arg-Trp-Orn)-OH] had a pEC50 in assay [2] (setting [3]) of 7.74.

With `CC(=O)N[C@@H](CCCNC(=N)N)C(=O)N[C@H]1CCC(=O)NCCC[C@@H](C(N)=O)NC(=O)[C@H](Cc2c[nH]c3ccccc23)NC(=O)[C@H](CCCNC(=N)N)NC(=O)[C@@H](Cc2ccc(C#N)cc2)NC(=O)[C@H](CCN)NC1=O` [Example 7, Ac-Arg-cyclo(Glu-Dab-D-Phe(4-CN)-Arg-Trp-Orn)-NH2], in assay [1], the pKi is 9.08. Further, in assay [2] (setting [3]), the pEC50 is 9.52 and the Emax was 48%. Besides, in assay [2] (setting [4]), the pEC50 is 9.87 and the Emax was determined as 100%.

Take `CC(=O)N[C@H](CCCNC(=N)N)C(=O)N[C@H]1CC(=O)NCCCC[C@@H](C(N)=O)NC(=O)[C@H](Cc2c[nH]c3ccccc23)NC(=O)[C@H](CCCNC(=N)N)NC(=O)[C@@H](Cc2ccccc2F)NC(=O)[C@H](CCC(N)=O)NC1=O` [Example 82, Ac-D-Arg-cyclo(Asp-Gln-D-Phe(2-F)-Arg-Trp-Lys)-NH2]: in assay [1], the pKi was 8.00. Besides, in assay [2] (setting [3]), the pEC50 is 8.70 and the Emax was 79%. Further, in assay [2] (setting [4]), the pEC50 is 10.02 and the Emax amounted to 95%.

For the molecule `CC(=O)N[C@@H](CCCNC(=N)N)C(=O)N[C@H]1CCCNC(=O)CC[C@@H](C(N)=O)NC(=O)[C@H](Cc2c[nH]c3ccccc23)NC(=O)[C@H](CCCNC(=N)N)NC(=O)[C@@H](Cc2ccccc2Cl)NC(=O)[C@H](CC(N)=O)NC1=O` [Example 113, Ac-Arg-cyclo(Orn-Asn-D-Phe(2-Cl)-Arg-Trp-Glu)-NH2], the pKi in assay [1] was 8.15. Also, the Emax came out at 80% in assay [2] (setting [3]) and 100% in assay [2] (setting [4]). Moreover, the pEC50 in assay [2] (setting [4]) was 10.19.

With `CC(=O)N[C@H](CCCNC(=N)N)C(=O)N[C@H]1CC(=O)NCCCC[C@@H](C(N)=O)NC(=O)[C@H](Cc2c[nH]c3ccccc23)NC(=O)[C@H](CCCNC(=N)N)NC(=O)[C@@H](Cc2ccc(F)cc2)NC(=O)[C@H](CCC(N)=O)NC1=O` [Example 83, Ac-D-Arg-cyclo(Asp-Gln-D-Phe(4-F)-Arg-Trp-Lys)-NH2], the pKi in assay [1] is 8.22. Further, in assay [2] (setting [3]), the pEC50 is 9.12 and the Emax worked out at 78%. In assay [2] (setting [4]), the pEC50 is 10.12 and the Emax came to 94%.

`CC(=O)N[C@@H](CCCNC(=N)N)C(=O)N[C@H]1CCC(=O)NCCC[C@@H](C(N)=O)NC(=O)[C@H](Cc2c[nH]c3ccccc23)NC(=O)[C@H](CCCNC(=N)N)NC(=O)[C@@H](Cc2cccc(Cl)c2)NC(=O)[C@H](CN)NC1=O` [Example 61, Ac-Arg-cyclo(Glu-Dap-D-Phe(3-Cl)-Arg-Trp-Orn)-NH2]: in assay [1], the pKi was 8.40. Further, in assay [2] (setting [3]), the Emax was determined as 6%. Also, in assay [2] (setting [4]), the pEC50 was 9.02 and the Emax is 89%.

Consider `CC(=O)N[C@@H](CCCNC(=N)N)C(=O)N[C@H]1CCC(=O)NCCC[C@@H](C(N)=O)NC(=O)[C@H](Cc2c[nH]c3ccccc23)NC(=O)[C@H](CCCNC(=N)N)NC(=O)[C@@H](Cc2cccc(Cl)c2)NC(=O)[C@H](CCCCN)NC1=O` [Example 100, Ac-Arg-cyclo(Glu-Lys-D-Phe(3-Cl)-Arg-Trp-Orn)-NH2] (Ac-REK[dPhe(3-Cl)]RW[Orn]-NH2; lactam 2-7), for which, in assay [1], the pKi is 8.40. In assay [2] (setting [3]), the pEC50 is 8.22 and the Emax amounted to 27%. The Emax in assay [2] (setting [4]) turned out to be 93%.

Consider `CC(=O)N[C@@H](CCCNC(=N)N)C(=O)N[C@H]1CCCNC(=O)CC[C@@H](C(N)=O)NC(=O)[C@H](Cc2c[nH]c3ccccc23)NC(=O)[C@H](CCCNC(=N)N)NC(=O)[C@@H](Cc2ccc(C#N)cc2)NC(=O)[C@H](CCC(N)=O)NC1=O` [Example 94, Ac-Arg-cyclo(Orn-Gln-D-Phe(4-CN)-Arg-Trp-Glu)-NH2], for which the Emax in assay [2] (setting [3]) turned out to be 32%. Also, in assay [2] (setting [4]), the pEC50 was 10.05 and the Emax was 92%.

Take `CC(=O)N[C@@H](CCCNC(=N)N)C(=O)N[C@H]1CCC(=O)NCCC[C@@H](C(=O)O)NC(=O)[C@H](Cc2c[nH]c3ccccc23)NC(=O)[C@H](CCCNC(=N)N)NC(=O)[C@@H](Cc2cc(F)c(F)c(F)c2)NC(=O)[C@H](CCC(N)=O)NC1=O` [Example 97, Ac-Arg-cyclo(Glu-Gln-D-Phe(3,4,5-triF)-Arg-Trp-Orn)-NH2]: the Emax turned out to be 49% in assay [2] (setting [3]) and 100% in assay [2] (setting [4]). In assay [2] (setting [4]), this molecule showed a pEC50 of 10.00.

Take `CC(=O)N[C@H](CCCNC(=N)N)C(=O)N[C@H]1CC(=O)NCCCC[C@@H](C(N)=O)NC(=O)[C@H](Cc2c[nH]c3ccccc23)NC(=O)[C@H](CCCNC(=N)N)NC(=O)[C@@H](Cc2ccc(C#N)cc2)NC(=O)[C@H](CCC(N)=O)NC1=O` [Example 81, Ac-D-Arg-cyclo(Asp-Gln-D-Phe(4-CN)-Arg-Trp-Lys)-NH2]: in assay [2] (setting [3]), the pEC50 is 8.40 and the Emax amounted to 23%. Further, in assay [2] (setting [4]), the pEC50 is 9.35 and the Emax was determined as 85%.

For the molecule `CC(=O)N[C@@H](CCCNC(=N)N)C(=O)N[C@H]1CCC(=O)NCCC[C@@H](C(=O)O)NC(=O)[C@H](Cc2c[nH]c3ccccc23)NC(=O)[C@H](CCCNC(=N)N)NC(=O)[C@@H](Cc2ccc(C#N)cc2)NC(=O)[C@H](CC(N)=O)NC1=O` [Example 85, Ac-Arg-cyclo(Glu-Asn-D-Phe(4-CN)-Arg-Trp-Orn)-OH], in assay [2] (setting [3]), the pEC50 was 7.82 and the Emax was 36%. The Emax in assay [2] (setting [4]) was determined as 94%.

Regarding `CC(=O)N[C@@H](CCCNC(=N)N)C(=O)N[C@H]1CC(=O)NCCCC[C@@H](C(N)=O)NC(=O)[C@H](Cc2c[nH]c3ccccc23)NC(=O)[C@H](CCCNC(=N)N)NC(=O)[C@@H](Cc2ccccc2F)NC(=O)[C@@H]2CCCN2C1=O` [Example 104, Ac-Arg-cyclo(Asp-Pro-D-Phe(2-F)-Arg-Trp-Lys)-NH2], the Emax in assay [2] (setting [3]) is 16%. In assay [2] (setting [4]), the pEC50 was 8.00 and the Emax is 100%.

A word on the pKi: it is the negative decadic logarithm of the Ki, by convention in mol/L. Broadly, the pEC50 is the EC50 on a negative log10 scale, so that one unit is a factor of ten.

The values above are taken from patent US9040663B2, “Melanocortin receptor-specific peptides” (AstraZeneca AB, priority 2009, dated 2015).
